We go through one compound from publication PMC11249239 (PLOS ONE, 2024).

The subject of the experiment is MCF10A normal breast epithelial cells. In words: Cell growth inhibition (CCK8 cytotoxicity assay), MCF10A. The experiment is classed as cell-based. To be noted: Homo sapiens, MCF-10A, 48 h treatment, read-out: Average EC50 ± SD, cell growth inhibition. Background: Tetrazolium dyes change colour on reduction, which living cells bring about.

As to `O=C(CCCCCCC(=O)Nc1ccccc1)NO` [SAHA, reference compound], the half-maximal effective concentration (EC50) (usually the concentration at which the effect is half-maximal) turned out to be 10.1 ± 0.982 µM.
